Measured values reported in patent US12281149B2, “Modulators of G-protein coupled receptors” (priority 2021, dated 2025).
*1 amine or outer side, *2 acyl side, *3 side chain or, on linkers, in order; H or OH if unused. Where a SMILES comes first, the peptide text is derived from it. Side-chain parts run from the residue outwards. [ ]: non-standard residue; d: D form. The star is where a group is joined. Isobutyryl(2-(3-CN-5-F-Ph)) = CC(C)(C(=O)*)c1cc(F)cc(C#N)c1; C20 diacid = O=C(O)CCCCCCCCCCCCCCCCCCC(=O)*; γGlu = O=C(O)[C@H](CCC(=O)[*:2])N[*:1]; X45 = CC(Cn1cc(Br)cn1)NCCC(=O)*; X32 = CC(C)(CN[*:1])C(=O)[*:2]; AEEA = NCCOCCOCC(=O)O; Aib = CC(C)(N)C(=O)O

Assays:
Type in all cases: cell-based
GLP-1 receptor [1] = target: T1, GLP-1 receptor (Homo sapiens, UniProt P43220); test: HitHunter cAMP assay, GLP-1 receptor; details: for EC50: CHO cells stably expressing human GLP-1 receptor, cAMP accumulation, 30 min, read-out: EC50 GLP-1R; for Emax: CHO cells, cAMP, normalized to maximum signal from GLP-1 (high) and DMSO (low), read-out: Emax GLP-1R
T1 sequence (P43220 24-463): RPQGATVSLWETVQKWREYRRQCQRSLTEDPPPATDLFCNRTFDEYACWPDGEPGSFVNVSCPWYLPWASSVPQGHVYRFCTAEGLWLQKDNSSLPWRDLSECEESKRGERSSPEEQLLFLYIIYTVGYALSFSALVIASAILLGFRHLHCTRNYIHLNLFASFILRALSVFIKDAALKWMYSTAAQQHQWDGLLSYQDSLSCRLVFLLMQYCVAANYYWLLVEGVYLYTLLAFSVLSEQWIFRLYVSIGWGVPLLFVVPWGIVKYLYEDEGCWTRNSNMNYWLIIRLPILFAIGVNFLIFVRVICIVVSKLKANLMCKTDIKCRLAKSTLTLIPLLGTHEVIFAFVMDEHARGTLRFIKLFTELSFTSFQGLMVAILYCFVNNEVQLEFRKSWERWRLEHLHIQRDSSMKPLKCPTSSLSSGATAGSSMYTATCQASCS

GIP receptor [2] = target: T2, GIP receptor (Homo sapiens, UniProt P48546); test: HitHunter cAMP assay, GIP receptor; details: for EC50: CHO cells stably expressing GIP receptor, cAMP accumulation, 30 min, read-out: EC50 GIP-1R; for Emax: CHO cells, cAMP, normalized to maximum signal from GIP (high) and DMSO (low), read-out: Emax GIP-1R
T2 sequence (P48546 22-466): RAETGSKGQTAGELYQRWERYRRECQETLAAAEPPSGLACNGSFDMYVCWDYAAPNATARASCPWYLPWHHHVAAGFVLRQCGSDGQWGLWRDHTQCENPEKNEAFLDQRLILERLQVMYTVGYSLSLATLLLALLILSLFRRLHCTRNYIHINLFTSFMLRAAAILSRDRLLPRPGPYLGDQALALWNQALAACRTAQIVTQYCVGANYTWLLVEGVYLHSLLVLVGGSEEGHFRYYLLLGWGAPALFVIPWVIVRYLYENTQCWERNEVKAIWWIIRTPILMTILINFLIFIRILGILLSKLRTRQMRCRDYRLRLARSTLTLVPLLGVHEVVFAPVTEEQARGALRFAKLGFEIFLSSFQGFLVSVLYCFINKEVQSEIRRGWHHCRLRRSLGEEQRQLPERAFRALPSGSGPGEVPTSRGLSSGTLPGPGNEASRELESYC

GIP receptor [3] = target: T2, GIP receptor; test: PathHunter β-arrestin assay, GIP receptor; design: host or cells: PathHunter CHO-K1 GIPR β-Arrestin Cell Line; details: β-arrestin-2 recruitment, PathHunter CHO-K1 GIPR β-Arrestin Cell Line, 90 min at 37° C.; normalized to GIP; read-out: GIPR β Arrestin EC50
GLP-1 receptor [4] = target: T1, GLP-1 receptor; test: PathHunter β-arrestin assay, GLP-1 receptor; design: host or cells: PathHunter CHO-K1 GLP1R β-Arrestin Cell Line; details: β-arrestin-2 recruitment, PathHunter CHO-K1 GLP1R β-Arrestin Cell Line, 90 min at 37° C.; normalized to GLP-1; read-out: GLP-1R β Arrestin EC50

Row | SMILES | EC50 (GLP-1 receptor [1]) [nM] | Emax (GLP-1 receptor [1]) [%] | EC50 (GIP receptor [2]) [nM] | Emax (GIP receptor [2]) [%] | EC50 (GIP receptor [3]) [nM] | EC50 (GLP-1 receptor [4]) [nM]
1 | CC[C@H](C)[C@H](NC(=O)[C@H](CC(C)C)NC(=O)[C@H](Cc1c[nH]c2ccccc12)NC(=O)[C@H](CCC(N)=O)NC(=O)[C@@H](NC(=O)[C@H](Cc1ccccc1)NC(=O)[C@H](C)NC(=O)[C@H](CCCCNC(=O)COCCOCCNC(=O)COCCOCCNC(=O)CC[C@H](NC(=O)CCCCCCCCCCCCCCCCCCC(=O)O)C(=O)O)NC(=O)[C@H](CCC(N)=O)NC(=O)[C@H](C)NC(=O)[C@@H](NC(=O)[C@H](CCCCN)NC(=O)[C@H](CC(=O)O)NC(=O)[C@H](CC(C)C)NC(=O)C(C)(C)NC(=O)[C@@H](NC(=O)[C@H](CO)NC(=O)[C@H](Cc1ccc(O)cc1)NC(=O)[C@H](CC(=O)O)NC(=O)[C@H](CO)NC(=O)[C@@H](NC(=O)[C@H](Cc1ccccc1)NC(=O)[C@@H](NC(=O)CNC(=O)[C@H](CCC(=O)O)NC(=O)CCNC(C)Cn1cc(Br)cn1)[C@@H](C)O)[C@@H](C)O)[C@@H](C)CC)[C@@H](C)CC)C(C)C)C(=O)N[C@@H](C)C(=O)NCC(=O)NCC(=O)N1CCC[C@H]1C(=O)N[C@@H](CO)C(=O)N[C@@H](CO)C(=O)NCC(=O)N[C@@H](C)C(=O)N1CCC[C@H]1C(=O)N1CCC[C@H]1C(=O)N1CCC[C@H]1C(=O)N[C@@H](CO)C(N)=O (stereo partly drawn) [Compound 274] (X45-EGTFTSDYSI[Aib]LDKIAQK([AEEA-AEEA-γGlu-C20 diacid])AFVQWLIAGGPSSGAPPPS-NH2) | 10 to 100 | 88 | 100 to 1000 | 36 | > 1000 | > 1000
2 | CC[C@H](C)[C@H](NC(=O)[C@H](CC(C)C)NC(=O)[C@H](Cc1c[nH]c2ccccc12)NC(=O)[C@H](CCC(N)=O)NC(=O)[C@@H](NC(=O)[C@H](Cc1ccccc1)NC(=O)[C@H](C)NC(=O)[C@H](CCCCNC(=O)COCCOCCNC(=O)COCCOCCNC(=O)CC[C@H](NC(=O)CCCCCCCCCCCCCCCCCCC(=O)O)C(=O)O)NC(=O)[C@H](CCC(N)=O)NC(=O)[C@H](C)NC(=O)[C@@H](NC(=O)[C@H](CCCCN)NC(=O)[C@H](CC(=O)O)NC(=O)[C@H](CC(C)C)NC(=O)C(C)(C)NC(=O)[C@@H](NC(=O)[C@H](CO)NC(=O)[C@H](Cc1ccc(O)cc1)NC(=O)[C@H](CC(=O)O)NC(=O)[C@H](CO)NC(=O)[C@@H](NC(=O)[C@H](Cc1ccccc1)NC(=O)[C@@H](NC(=O)CNC(=O)[C@H](CCC(=O)O)NC(=O)C(C)(C)CNC(=O)C(C)(C)c1cc(F)cc(C#N)c1)[C@@H](C)O)[C@@H](C)O)[C@@H](C)CC)[C@@H](C)CC)C(C)C)C(=O)N[C@@H](C)C(=O)NCC(=O)NCC(=O)N1CCC[C@H]1C(=O)N[C@@H](CO)C(=O)N[C@@H](CO)C(=O)NCC(=O)N[C@@H](C)C(=O)N1CCC[C@H]1C(=O)N1CCC[C@H]1C(=O)N1CCC[C@H]1C(=O)N[C@@H](CO)C(N)=O [Compound 192] ({Isobutyryl(2-(3-CN-5-F-Ph))}-[X32]EGTFTSDYSI[Aib]LDKIAQK([AEEA-AEEA-γGlu-C20 diacid])AFVQWLIAGGPSSGAPPPS-NH2) | 0.1 to 1 | 101 | 1 to 10 | 104 | > 1000 | > 1000
